Source: patent EP4595966A1, “USE OF NPY/Y5R INHIBITOR IN TREATING LIVER METASTASIS” (Friedrich-Alexander-Universität Erlangen-Nürnberg, priority 2024, dated 2025)

Legend:
[1] = tested on: human melanoma cells (SkMel28); experiment: Clonogenicity assays (two- and three-dimensional colony formation), human melanoma cells; format: cell-based; conditions: human (metastatic) melanoma cells
Excerpt: (§1) • Figure 1 A-B. Boyden chamber analysis and representative images (10-fold original magnification) of chemotaxis of human melanoma cells (SkMel28) towards recombinant NPY (lower chamber) with or without application of Y5R specific inhibitor CGP71683 (Y5Ri) (upper chamber) compared to migration towards serum free medium (n = 9). Arrowheads indicate migrated cells. • Figure 2. Representative images of colony number and colony size of human melanoma cells (SkMel28) in clonogenicity assays with application of increasing concentrations of Y5R inhibitor (Y5Ri) (n = 3). • Figure 3. Schematic illustration of the experimental procedure: splenic injection of murine melanoma cells (B16) in C57BL/6 mice on day 0; intraperitoneal injection of Y5R inhibitor CGP71683 (Y5Ri) (15 mg/kg body weight per injection) or solvent only (DMSO) as control on indicated days; end of experiment eight days after cell implantation. • Figure 4. Explanted metastases bearing spleens and livers of DMSO (control) and Y5Ri treated mice after splenic injection of B16 melanoma cells. • Figure 5. Macroscopic classification of livers from DMSO (n = 11) and Y5Ri treated mice (n = 9) into very low / low versus moderate / high liver metastasis. • Figure 6. A. CHK2 level in NPY^-/- mice compared to control WT mice measured by IHC analysis. B. CHK2 level in Y5Ri-treated mice compared to control DMSO-treated mice measured by IHC analysis. • Figure 7. […] A. Quantification of NPY mRNA expression levels in liver tissues from mice treated with control LNPs ("Control", LNPs bearing control siRNA pool, n = 11) and from mice treated with LNPs bearing siRNA pool targeting murine NPY ("LNP-siNPY", n = 11). B. Quantification of NPY protein levels in liver tissues from mice treated with control LNPs (n = 11) and LNP-siNPY treated mice (n = 11). • Figure 9 A-B. ELISA based protein expression analysis of absolute NPY levels in liver tissues and serum samples from LNP-siNPY treated mice (n = 10) compared to mice treated with control LNPs (LNPs bearing control siRNA pool, n = 11) after splenic melanoma cell injection. • Figure 10. […] A. Quantification of number of metastases in liver tissues from LNP-siNPY treated mice (n = 10) compared to mice treated with control LNPs (LNPs bearing control siRNA pool, n = 11). B. Quantification of metastases size in liver tissues from LNP-siNPY treated mice (n = 10) compared to mice treated with control LNPs (LNPs bearing control siRNA pool, n = 11). • Figure 13. […] A. Quantification of pERK protein expression in metastatic liver tissue samples of LNP-siNPY treated mice (n = 6) compared to mice treated with control LNPs (LNPs bearing control siRNA pool, n = 6). […]

[2] = tested on: human melanoma cells (SkMel28); experiment: Boyden chamber chemotactic migration, human melanoma cells; format: cell-based; conditions: for NPY-induced chemotactic migration: melanoma cells, migration towards recombinant NPY, co-treatment with the substance
Excerpt: as §1

[3] = tested on: CRC, PC and BC cell lines; experiment: Boyden chamber NPY-mediated chemotactic migration, CRC, PC and BC cell lines; format: cell-based
Excerpt: (§2) Normal human epidermal melanocytes (NHEM), the human primary melanoma cell lines Mel Juso, Mel Ei, Mel Wei and metastatic human melanoma cell lines SkMel28 (ATCC CRL-1469™), Mel Im, Mel Ju, SkMel3 (ATCC HTB-69™) were described previously (Jacob et al., 1998; Heimerl et al., 2007). Primary human hepatocytes (PHH) were isolated and cultured as described elsewhere (Dietrich et al., 2017; Lee et al., 2013). In addition, the human breast cancer cell line MCF-7 (ATCC HTB-22™), the human pancreatic cancer cell line Panc-1 (ATCC CRL-1469™) and the human colon cancer cell lines HT29 (ATCC HTB-38™), Caco-2 (ATCC HTB-37™) and LoVo (ATCC CCL-229™) were used. The murine melanoma cell line B16 (ATCC CRL-6475™) was used for in vitro and in vivo studies. Furthermore, the murine pancreatic cancer cell line KPC and the murine colon cancer cell lines MC38 and CT26 (ATCC CRL-2638™) were used. Table 4. Summary and additional information of human and murine cell lines. BC: Breast cancer. CRC: Colorectal cancer. Hetero: Heterozygous genotype. Homo: Homozygous genotype. MET: Metastatic melanoma cell line. MM: Malignant melanoma. Nd: not determined / missing. PC: Pancreatic cancer. PT: Primary tumor melanoma cell line. Peri-tumor: Tumor-surrounding liver tissue. IR: immunoreactivity (score).
As described previously (Dietrich et al., 2017), Boyden chamber assays were used in order to analyze cell migration. Boyden chamber filters were additionally coated with Matrigel to analyze cell invasion.

[4] = tested on: CRC, PC and BC cell lines; experiment: Clonogenicity assays, CRC, PC and BC cell lines; format: cell-based
Excerpt: as §2
As described previously (Dietrich et al., 2017), clonogenic assays were performed to analyze stem cell behavior, attachment dependent colony formation and growth of cancer cells.
Anchorage independent colony formation and growth of cancer cells were analyzed using soft agar colony formation assays as described previously (Borowicz et al., 2014). Treatment with specific agonists and antagonists started 24 h after tumor cell seeding. Treatment was repeated after five and nine days. Microscopic analysis of the obtained colonies was conducted 14 days after tumor cell seeding.

pCHK2 = pCHK2 levels in melanoma cells in vitro; format: cell-based; conditions: (metastatic) melanoma cells in vitro
Procedure: As described in detail in previous studies (Dietrich et al., 2017), Western blots and densitometric quantification were performed using the following primary antibodies: anti-β-actin antibody (catalog no. A1978, Sigma-Aldrich; 1 in 5,000 dilution), anti-phospho-ERK antibody (catalog no. #9101, Cell Signaling, Frankfurt am Main, Germany; 1 in 4,000 dilution), anti-ERK antibody (catalog no. #9102, Cell Signaling; 1 in 1,000 dilution), anti-phospho-AKT antibody (catalog no. #9271, Cell Signaling, Frankfurt am Main, Germany; 1 in 2000 dilution), anti-AKT (catalog no. #9272, Cell Signaling, Frankfurt am Main, Germany; 1 in 2000 dilution), anti-Y5R antibody (catalog no. ab133757, Abcam; 1 in 30,000 dilution), anti-phospho-Chk2 antibody (catalog no. #2661, Cell Signaling, Frankfurt am Main, Germany; 1 in 1000 dilution), anti-phospho-p53 antibody (catalog no. #9284, Cell Signaling, Frankfurt am Main, Germany; 1 in 1000 dilution).

[5] = tested on: B16 melanoma cells (liver metastasis); experiment: Spleen-liver metastasis model with Y5R inhibitor treatment; format: in vivo, C57BL/6 mice
Excerpt: • Figure 1 A-B. Boyden chamber analysis and representative images (10-fold original magnification) of chemotaxis of human melanoma cells (SkMel28) towards recombinant NPY (lower chamber) with or without application of Y5R specific inhibitor CGP71683 (Y5Ri) (upper chamber) compared to migration towards serum free medium (n = 9). Arrowheads indicate migrated cells. • Figure 2. Representative images of colony number and colony size of human melanoma cells (SkMel28) in clonogenicity assays with application of increasing concentrations of Y5R inhibitor (Y5Ri) (n = 3). • Figure 3. Schematic illustration of the experimental procedure: splenic injection of murine melanoma cells (B16) in C57BL/6 mice on day 0; intraperitoneal injection of Y5R inhibitor CGP71683 (Y5Ri) (15 mg/kg body weight per injection) or solvent only (DMSO) as control on indicated days; end of experiment eight days after cell implantation. • Figure 4. Explanted metastases bearing spleens and livers of DMSO (control) and Y5Ri treated mice after splenic injection of B16 melanoma cells. • Figure 5. Macroscopic classification of livers from DMSO (n = 11) and Y5Ri treated mice (n = 9) into very low / low versus moderate / high liver metastasis. • Figure 6. A. CHK2 level in NPY^-/- mice compared to control WT mice measured by IHC analysis. B. CHK2 level in Y5Ri-treated mice compared to control DMSO-treated mice measured by IHC analysis. • Figure 7. Schematic illustration of the experimental procedure: pre-treatment of C57BL/6 mice with lipid nanoparticles (LNP) bearing control siRNA pool or siNPY pool (pool of siRNAs targeting murine NPY) one day before surgery (day -1); splenic injection of murine melanoma cells (B16) on day 0; intraperitoneal injection of LNPs with control siRNA pool or siNPY pool as indicated; end of experiment six days after cell implantation. • Figure 8. A. Quantification of NPY mRNA expression levels in liver tissues from mice treated with control LNPs ("Control", LNPs bearing control siRNA pool, n = 11) and from mice treated with LNPs bearing siRNA pool targeting murine NPY ("LNP-siNPY", n = 11). B. Quantification of NPY protein levels in liver tissues from mice treated with control LNPs (n = 11) and LNP-siNPY treated mice (n = 11). • Figure 9 A-B. ELISA based protein expression analysis of absolute NPY levels in liver tissues and serum samples from LNP-siNPY treated mice (n = 10) compared to mice treated with control LNPs (LNPs bearing control siRNA pool, n = 11) after splenic melanoma cell injection. • Figure 10. […] A. Quantification of number of metastases in liver tissues from LNP-siNPY treated mice (n = 10) compared to mice treated with control LNPs (LNPs bearing control siRNA pool, n = 11). B. Quantification of metastases size in liver tissues from LNP-siNPY treated mice (n = 10) compared to mice treated with control LNPs (LNPs bearing control siRNA pool, n = 11). • Figure 13. […] A. Quantification of pERK protein expression in metastatic liver tissue samples of LNP-siNPY treated mice (n = 6) compared to mice treated with control LNPs (LNPs bearing control siRNA pool, n = 6). B. Quantification of pCHK2 protein expression in metastatic liver tissue samples of LNP-siNPY treated mice (n = 6) compared to samples from control treatment (control siPool bearing LNPs) (n = 6). • Figure 15. […]

metastatic CRC organoids = experiment: Ki67 expression in metastatic CRC organoids; format: cell-based, murine; conditions: vs controls
Procedure: Murine APTAK organoids were used for in vitro and in vivo experiments. These APTAK tumor organoids are deficient in Apc, Tp53, Tgfbr2 and express constitutively activated Kras and activated Akt1. Organoids were generated and CRC models were conducted in a similar way as previously described (Heichler et al., 2020). In an orthotopic mouse model for CRC and CRC (liver) metastasis, single cell suspensions from genetically engineered APTAK organoids were injected into the submucosa of wildtype mice.
Immunohistochemistry (IHC) and immunofluorescence analyses were performed using tissue microarrays consisting of human cancer tissue samples and mouse paraffin-embedded tissue sections as described previously (Dietrich et al., 2017; Dietrich et al., 2020). […] For each antibody, immunohistochemistry staining was evaluated semi-quantitatively and scores were calculated as described previously (Dietrich et al., 2017; Dietrich et al., 2020).

Row | chemotactic migration induced by hepatocyte-derived, NPY-containing supernatants or by liver lysates from wildtype mice ([2]; concomitant Y5R-inhibition) | liver transaminases ([5]; mice, 15 mg/kg i.p. every 24 h) | Structure (SMILES) | clonogenicity [1] | NPY-induced chemotactic migration [2] | NPY-mediated chemotactic migration ([3]; CRC cells) | NPY-mediated chemotactic migration ([3]; PC and BC cell lines) | clonogenicity ([4]; CRC cells) | clonogenicity ([4]; PC and BC cell lines) | pCHK2 levels (pCHK2) | cleaved caspase 3 expression in liver metastatic cells ([5]; mice, IHC) | liver metastasis ([5]; splenic injection of B16 cells, 15 mg/kg i.p. every 24 h, vs vehicle control) | pCHK2 in liver metastasis ([5]; treated mice vs controls, IHC (Figure 6B)) | Ki67 expression in liver metastasis ([5]; treated vs control-treated mice, IHC) | clonogenicity ([4]; CRC, PC and BC cell lines) | Ki67 expression (metastatic CRC organoids)
1 | – | – | CC(=O)O[C@H]1[C@H]2O[C@]23[C@@H]2CC[C@@H]4C[C@@H](O)CC[C@]4(C)[C@H]2CC[C@]3(C)[C@H]1c1ccc(=O)oc1 [Cinobufagin] | strongly reduced clonogenicity | – | – | – | – | – | – | – | – | – | – | – | –
2 | – | – | NC(=O)NCc1ccc(CNC(=O)[C@@H](CCCN=C(N)N)NC(=O)C(c2ccccc2)c2ccccc2)cc1 [Y1Ri] | not affected | not altered | did not affect | sufficient to reduce NPY-mediated chemotactic migration | did not affect | did not affect clonogenicity | – | – | – | – | – | – | –
3 | – | – | N=C(N)NCCC[C@H](NC(=O)CC1(CC(=O)N2CCN(C3c4ccccc4NC(=O)c4ccccc43)CC2)CCCC1)C(=O)NCCn1c(=O)n(-c2ccccc2)n(-c2ccccc2)c1=O (stereo partly drawn) [Y2Ri] | not affected | not altered | did not affect | not affected | did not affect | did not affect clonogenicity | – | – | – | – | – | – | –
4 | significantly reduced | did not affect | Nc1nc(NC[C@H]2CC[C@H](CNS(=O)(=O)c3cccc4ccccc34)CC2)nc2ccccc12 [Y5Ri, N-[[trans-4-[[(4-amino-2-quinazolinyl)amino]methyl]cyclohexyl]methyl]-1-naphthalenesulfonamide] | strongly reduced clonogenicity | antagonized NPY-induced chemotactic migration | – | – | – | – | induced pCHK2 | only slightly, however not significantly, enhanced | significantly reduced liver metastasis | significant induction | significantly reduced | confirmed | significantly reduced Ki67 expression
